Columns and labels:
RAW264.7 cells = experiment: pHrodo green phagocytosis assay in RAW264.7 cells; format: cell-based; settings: FIG. 10C, 10D, 11D
Procedure: (§1) pHrodo™ green-conjugated E. coli Bioparticles™ were diluted in serum medium, incubated for 30 minutes and washed twice with PBS. Cells were incubated for the time indicated in the manufacturer's instructions and analyzed using a FACS Canto II flow cytometer (BD) or fluorescence microscope (DFC3000G; Leica, Wetzlar, Germany).
(§2) Pulse and chase phagocytosis assays were performed using pHrodo green to compare phagocytic activity between macrophages of WT and KO mice. In FIG. 11A, there was an increase in the intensity of the green fluorescence signal in the BMDM of WT mice, indicating the gradual maturation and fusion of phagosomes containing pHrodo green with lysosomes.

BMDM [1] = experiment: pHrodo green E. coli Bioparticles phagocytosis assay in BMDM; format: cell-based, mouse; settings: for pHrodo intensity: BMDM of WT mice, FIG. 10B, 10D, 11B-11D
Procedure: as §1, §2

BMDM [2] = experiment: NAD+ level measurement in BMDM; format: cell-based, mouse
Procedure: (§3) Bone marrow derived macrophages (hereinafter referred to as BMDM) were harvested, and according to the manufacturer's instructions, EnzyChrom NAD^+/NADHA assay Kit (Bioassay Systems, Hayward, CA, USA), Elite NADPH Assay Kit (eEnzyme, Gaithersburg, MD, USA) and Cell Titer-Glo® Luminescent Cell Viability assay (Promega, Madison, WI, USA) were used for analysis.
(§4) Since NAD^+ is an important cofactor in ATP production, ATP levels were measured during LPS treatment. […] However, the NADPH level in NAMPT-depleted macrophages was reduced by 21%.

DSS-induced colitis = DSS-induced colitis model in NAMPT KO mice with NMN administration; format: in vivo, mouse
Excerpt: Nampt^f/f mice (C57BL6), which have two loxP sites adjacent to exon 5, were crossed with LyzM-Cre mice (C57BL6) to specifically knock out (KO) NAMPT in myeloid cell lineages including macrophages (Nampt^f/fLyzMCre^+/− mice; hereinafter referred to as KO mice). KO mice (heterozygous) were used as mice knocked out of bone marrow-specific NAMPT, and Nampt^f/f mice (wild type; hereinafter referred to as WT mice) were used as controls. The mice were stored at the Ajou University Laboratory Animal Research Center and preserved according to the guidelines of the Institution's Animal Care and Use Committee, which approved all animal procedures (2020-0013).
Age- and gender-matched WT mice and KO mice were administered with 2.5% DSS (MP Biomedicals, Santa Ana, CA, USA) for 7 days and then allowed to recover for 7 days. Colitis severity was determined daily through a scoring system based on the sum of scores for the following parameters: weight loss (0 points=no weight loss/weight gain, 1=5 to 10% weight loss, 2=11 to 15% weight loss, 3=16 to 20% weight loss, and 4=21% or more weight loss); stool consistency (score of 0=normal and well formed, 2=very soft and not formed, and 4=loose stool); and hemorrhagic stool score (0=normal colored stool, 2=red colored stool, 4=bloody stool). The disease activity index (DAI) ranged from 0 to 12.
Histology was scored blindly using a semi-quantitative scoring system based on the sum of scores for the following parameters: presence of ulceration: 0=none, 1=present but very slight, 2=minimal, 3=moderate, 4=widespread; presence of inflammation: 0=none, 1=minimal, 2=mild, 3=moderate, 4=severe; degree of inflammation: 0=none, 1=mucosal, 2=mucosal+submucosal, 3=mucosal+submucosal+muscle penetration, 4=full thickness invasion. Immunohistochemistry was performed using rabbit anti-NAMPT (Bethyl Laboratories, TX, USA), rabbit anti-Ki-67 (Abcam, Cambridge, UK), rabbit anti-cleaved caspase 3 (Cell Signaling Technology), mouse anti-CD326 (EpCAM)-APC (Invitrogen) and mouse anti-F4/80 (Abcam) antibodies.
Apoptosis was assessed by the TUNEL assay using the Apoptag plus in situ apoptosis fluorescein detection kit (Merck) according to the manufacturer's instructions. TUNEL positive signals were corrected to total nuclear signals for each field. The phagocytic cells were stained using the Apoptag ISOL dual fluorescence apoptosis detection kit (Millipore) according to the manufacturer's instructions. The stained samples were then incubated overnight with mouse anti-F4/80 antibodies. Fluorescence images were obtained by a confocal microscope (A1R HD25, Nikon, Tokyo, Japan) and a slide scanner (Axioscan, Zeiss, Germany).

[3] = mouse, in vivo
Excerpt: It was further elucidated whether there was any clear cytotoxic effect by NMN injection in mice.

BMDM [4] = experiment: NADPH level measurement in macrophages (BMDM); format: cell-based, mouse
Procedure: as §3, §4

BMDMs = experiment: ROS measurement in LPS- and IFN-γ-activated BMDMs; format: cell-based, mouse; settings: FIG. 13B
Procedure: BMDM or peritoneal macrophages were incubated with HBSS containing 5 μM CM-H2DCFDA (Invitrogen, Carlsbad, CA, USA) for 15 min at 37° C. To measure mitochondrial reactive oxygen species levels, cells were incubated with 5 μM MitoSOX (Invitrogen) for 15 minutes. FACS Canto II (BD) was used to monitor fluorescence levels.

Raw 264.7 cells = experiment: ROS measurement in Raw 264.7 cells upon LPS; format: cell-based; settings: FIG. 10H
BMDM [5] = experiment: M1/M2 macrophage polarization of BMDM (FACS, Western blot); format: cell-based, mouse
Procedure: The cell suspension of Example 4 was stained with various combinations of fluorochrome-conjugated antibodies on ice for 20 minutes under dark conditions, wherein the antibodies included anti-CD45 (30-F11), anti-CD1 lb (M1/70), anti-F4/80 (BM8), anti-Ly6G (1A8), anti-Ly6C (HK1.4), anti-MHC II (M5/114.15.2), anti-CD11c (N418), anti-CD206 (MMR) and anti-CD86 (GL-1) (all purchased from Biolegend, San Diego, CA, USA). Samples were obtained from the FACS Canto II Flow Cytometer (BD, Franklin Lakes, NJ, USA). Data were analyzed using FlowJo™ Software (BD).
Next, it was determined whether NAMPT is involved in the polarization of M1 and M2 macrophages.

[6] = NAMPT KO mice, 2.5% DSS, 500 mg/kg i.p.
[7] = macrophages of KO mice, NMN with/without 6AN, FIG. 12I

SMILES: CO/C1=C\C(C)=C\[C@@H](C)[C@@H](O)[C@@H](C)C/C(C)=C/C=C/[C@H](OC)[C@@H]([C@@H](C)[C@@H](O)[C@H](C)[C@@]2(O)C[C@@H](O)[C@H](C)[C@@H](C(C)C)O2)OC1=O [Baf A1, bafilomycin A1]
- pHrodo intensity (RAW264.7 cells): reduced the fluorescence intensity
- pHrodo intensity (BMDM [1]): reduced the fluorescence intensity

SMILES: NC(=O)c1ccc[n+]([C@@H]2O[C@H](COP(=O)([O-])O)[C@@H](O)[C@H]2O)c1 [NMN, nicotinamide mononucleotide]
- NAD+ levels (BMDM [2]; after NAMPT knock out or FK866 treatment, FIG. 12B): restored the phenotype
- survival (DSS-induced colitis; NAMPT KO mice, 2.5% DSS, 500 mg/kg NMN i.p. 3 times a week, 8 out of 12): 67%
- DAI (DSS-induced colitis; [6]): restored
- weight loss (DSS-induced colitis; [6]): restored
- F4/80+ macrophage population (DSS-induced colitis; colon tissue, FIG. 14F): decrease
- Ki-67+ cells (DSS-induced colitis; colon tissue, FIG. 14F): increased
- positive signals of TUNEL (DSS-induced colitis; colon tissue, FIG. 14F): decreased
- positive signals of cleaved caspase 3 (DSS-induced colitis; colon tissue, FIG. 14F): decreased
- abnormalities in the colon, liver and spleen at the microscopic level [3]: no abnormalities
- serum ALT level [3]: similar
- serum AST level [3]: similar
- pHrodo fluorescence intensity (BMDM [1]; BMDM of KO mice): restored fluorescence intensity
- NADPH levels (BMDM [4]; in LPS treatment, FIG. 12G): increased NADPH levels
- NADPH levels (BMDM [4]; [7]): restored NADPH levels
- NADPH levels (BMDM [4]; macrophages of KO mice, FIG. 12D, 12E): increased NADPH levels

SMILES: NC(=O)c1ccc(N)nc1 [6AN, 6-aminonicotinamide]
- ROS levels (BMDMs): decrease in ROS levels
- NADPH levels (BMDM [4]; 6AN during LPS challenge, FIG. 12J): further reduced NADPH levels
- NADPH levels (BMDM [4]; [7]): blocked
- NADPH levels (BMDM [4]; macrophages of WT mice, FIG. 12H): reduced NADPH levels in a dose-dependent manner

SMILES: O=C(/C=C/c1cccnc1)NCCCCC1CCN(C(=O)c2ccccc2)CC1 [FK866]
- NAD+ levels (BMDM [2]; FIG. 12B): significantly reduced
- NAD+ levels (BMDM [2]; LPS treatment): further decrease
- pHrodo intensity (RAW264.7 cells): reduced pHrodo intensity
- ROS production (Raw 264.7 cells; response to LPS): partially inhibited
- pHrodo intensity (BMDM [1]): decreased
- NADPH levels (BMDM [4]; in LPS treatment, FIG. 12G): further decrease in NADPH levels
- polarization of M1 and M2 macrophages (BMDM [5]; BMDM treated with LPS/IFN-γ or IL-4, FACS, FIG. 7A, 7B): did not result in polarization of M1 and M2 macrophages
- expression of M1 and M2 macrophage-specific markers (BMDM [5]; Western blot, FIG. 7D): did not affect

SMILES: NC(=O)c1ccc[n+]([C@@H]2O[C@H](COP(=O)([O-])OP(=O)(O)OC[C@H]3O[C@@H](n4cnc5c(N)ncnc54)[C@H](O)[C@@H]3O)[C@@H](O)[C@H]2O)c1 [NAD^+, nicotinamide adenine dinucleotide]
- inhibitory effect of FK866 on ROS production (Raw 264.7 cells; LPS, FK866, NAD+ co-treatment): recovered

Source: patent US12318402B2, “Composition for treating or preventing colitis by NAMPT metabolic regulation” (AJOU UNIVERSITY INDUSTRY-ACADEMIC COOPERATION FOUNDATION, priority 2021, dated 2025)
